According to PubChem BioAssay (NCI):
“And” between values parts separate entries of the source, which are not always exact repeats. Identical values can stand only once.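 Compound exposure: 48 hours, 5 concentrations, 96-well plates. Abbreviation: GI50, concentration required for 50% inhibition of growth. Definition used: TGI = concentration required for complete inhibition of growth.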

Key:
Test in all cases: NCI tumour cell line growth inhibition, 48 h
SF-539 CNS = test system: SF-539 CNS
BT-549 breast = test system: BT-549 breast
SR leukemia = test system: SR leukemia
CAKI-1 renal = test system: CAKI-1 renal
UO-31 renal = test system: UO-31 renal
UACC-62 melanoma = test system: UACC-62 melanoma
MDA-MB-435 = test system: MDA-MB-435
ACHN renal = test system: ACHN renal
CCRF-CEM leukemia = test system: CCRF-CEM leukemia
MALME-3M melanoma = test system: MALME-3M melanoma
LOX IMVI melanoma = test system: LOX IMVI melanoma
SF-295 CNS = test system: SF-295 CNS
OVCAR-8 ovarian = test system: OVCAR-8 ovarian
K-562 leukemia = test system: K-562 leukemia
UACC-257 melanoma = test system: UACC-257 melanoma
COLO 205 colon = test system: COLO 205 colon
SNB-19 CNS = test system: SNB-19 CNS

Compound | TGI (SF-539 CNS) | TGI (BT-549 breast) | TGI (SR leukemia) | TGI (CAKI-1 renal) | TGI (UO-31 renal) | TGI (UACC-62 melanoma) | TGI (MDA-MB-435) | TGI (ACHN renal) | TGI (CCRF-CEM leukemia) | TGI (MALME-3M melanoma) | TGI (LOX IMVI melanoma) | TGI (SF-295 CNS) | TGI (OVCAR-8 ovarian) | TGI (K-562 leukemia) | TGI (UACC-257 melanoma) | TGI (COLO 205 colon) | TGI (SNB-19 CNS) | GI50 (SR leukemia) | GI50 (ACHN renal) | GI50 (MALME-3M melanoma)
COc1ccc(C2=CN3CCC[C@H]3C=C2c2cc(O)c(OC)c(OC)c2)cc1OC | 0.0594 µM and 0.0927 µM | 0.331 µM | 0.0518 µM | 0.0522 µM | 0.0905 µM and 0.0233 µM | 0.0336 µM | 0.0165 µM | 0.0959 µM | 0.235 µM | 0.0333 µM | 0.00717 µM | 0.115 µM | 0.0518 µM and 0.0108 µM | 0.244 µM and 0.173 µM | 0.0899 µM | 0.0256 µM | – | – | – | –
O=C1C[C@H](c2ccccc2)C2(C(=O)c3ccccc3C2=O)[C@H](c2ccccc2)C1 | – | > 100 µM | > 100 µM | > 100 µM | > 100 µM | > 100 µM | > 100 µM | – | > 100 µM | > 100 µM | – | > 100 µM | > 100 µM | > 100 µM | – | > 100 µM | > 100 µM | – | – | –
COc1cc(CNc2nc3cc(C(F)(F)F)ccc3nc2C)cc(OC)c1OC | 62.2 µM | – | 76.1 µM | 96.4 µM | 63.9 µM | – | 55.5 µM | 38.1 µM | 62.6 µM | 41.8 µM | 27.8 µM | 46.5 µM | > 100 µM | 73.9 µM | 37.9 µM | 30.2 µM | > 100 µM | – | – | –
c1ccc(Nc2nnc(-c3nsc4ccccc34)o2)cc1 | > 100 µM | – | > 100 µM | – | > 100 µM | > 100 µM | – | > 100 µM | > 100 µM | – | > 100 µM | – | > 100 µM | > 100 µM | > 100 µM | > 100 µM | > 100 µM | – | – | –
CC1(C)[C@@H]2C[C@H]1C(Cc1cccc(C[C@H]3c4cc(-c5ccccn5)ncc4[C@H]4C[C@@H]3C4(C)C)c1)c1cc(-c3ccccn3)ncc12 (stereo not given in full) | > 28.4 µM | > 93.5 µM | 2.63 µM | > 100 µM | 6.15 µM | > 21 µM | > 58.5 µM | > 100 µM | – | 44.9 µM | 4.15 µM | > 54.3 µM | > 44.2 µM | > 100 µM | > 42.4 µM | > 58.6 µM | > 100 µM | 0.439 µM | 0.605 µM | 3.65 µM
